{
  "source": "patent US20090312316A1",
  "about": "“NOVEL COMPOUNDS” (priority 2006, published 2009)",
  "key": {"[1]": {"tested_on": "B16-BL6 melanoma cells", "conditions": "same dosage (1.8 mg/kg); cited from earlier work"}, "[2]": {"tested_on": "protein synthesis in the cultured rat cells", "conditions": "cited from earlier work"}, "[3]": {"tested_on": "capillary tube formation", "conditions": "Wakabayashi et al., 1997, cited from earlier work"}, "[4]": {"tested_on": "panel of 12 human tumour cell lines", "test": "monolayer proliferation assay (modified propidium iodide assay) in a panel of 12 human tumour cell lines", "type": "cell-based", "method": "In vitro evaluation of compounds for anticancer activity in a panel of 12 human tumour cell lines in a monolayer proliferation assay was carried out at the Oncotest Testing Facility, Institute for Experimental Oncology, Oncotest GmbH, Freiburg.\nThe Oncotest cell lines were established from human tumor xenografts as described by Roth et al., (1999). The origin of the donor xenografts was described by Fiebig et al., (1999). Other cell lines were either obtained from the NCI (H460, SF-268, OVCAR-3, DU145, MDA-MB-231, MDA-MB-468) or purchased from DSMZ, Braunschweig, Germany (LNCAP).\nAll cell lines, unless otherwise specified, were grown at 37° C. in a humidified atmosphere (95% air, 5% CO2) in a ‘ready-mix’ medium containing RPMI 1640 medium, 10% fetal calf serum, and 0.1 mg/mL gentamicin (PAA, Cölbe, Germany).\nA modified propidium iodide assay was used to assess the effects of the test compound(s) on the growth of human tumour cell lines (Dengler et al., (1995)).\nBriefly, cells were harvested from exponential phase cultures by trypsinization, counted and plated in 96 well flat-bottomed microtitre plates at a cell density dependent on the cell line (5-10.000 viable cells/well). After 24 h recovery to allow the cells to resume exponential growth, 0.010 mL of culture medium (6 control wells per plate) or culture medium containing macbecin were added to the wells. Each concentration was plated in triplicate. Compounds were applied in two concentrations (0.001 mM and 0.01 mM). Following 4 days of continuous exposure, cell culture medium with or without test compound was replaced by 0.2 mL of an aqueous propidium iodide (PI) solution (7 mg/L). To measure the proportion of living cells, cells were permeabilized by freezing the plates. After thawing the plates, fluorescence was measured using the Cytofluor 4000 microplate reader (excitation 530 nm, emission 620 nm), giving a direct relationship to the total number of viable cells.\nThe mean growth inhibition across the 12 cell-line panel was expressed as treated/control×100 (% T/C).\nIn vitro evaluation of the test compounds for anticancer activity in a panel of human tumour cell lines in a monolayer proliferation assay was carried out as described in the general methods using a modified propidium iodide assay. This screen may be used as a model for the toxic effect of compounds in inhibiting general cell growth."}, "[5]": {"tested_on": "VEGF-induced angiogenesis (WiDr cells)", "conditions": "1.8 mg/kg by intraperitoneal injection; Funahashi et al., 1999; cited from earlier work"}, "[6]": {"tested_on": "CAM vasculature", "test": "Chick chorioallantoic membrane (CAM) assay of anti-angiogenic activity", "type": "in vivo", "method": "Fresh fertile eggs were be incubated for 3 days in a standard egg incubator at 37° C. for 3 days. On Day 3, eggs were cracked under sterile conditions and embryos were placed into 20×100 mm plastic plates and cultivated at 37° C. in an embryo incubator with a water reservoir on the bottom shelf. Air was continuously bubbled into the water reservoir using a small pump so that the humidity in the incubator was kept constant. […] Embryos were returned to the incubator after addition of test material. Control embryos received 10 μL of vehicle alone. […] The blood vessel density was semi-quantitatively measured using an angiogenesis scoring system, in that exponential numbers 1 to 32 were used to indicate number of blood vessels present at the treatment sites on the CAM. Number 32 represented the highest density and 0 represented no angiogenesis. The percent of inhibition at each dosing site was calculated using the score recorded for that site divided by the mean score obtained from the appropriate control samples for each individual experiment. The percent of inhibition for each dose of a given compound was calculated by pooling all results obtained for that dose."}, "[7]": {"tested_on": "human umbilical vein endothelial cells (HUVEC)", "conditions": "cited from earlier work"}, "[8]": {"biological_target": "cyclin-dependant kinase Cdc28/Cln2 (Saccharomyces cerevisiae, UniProt P00546)", "sequence (P00546 whole entry)": "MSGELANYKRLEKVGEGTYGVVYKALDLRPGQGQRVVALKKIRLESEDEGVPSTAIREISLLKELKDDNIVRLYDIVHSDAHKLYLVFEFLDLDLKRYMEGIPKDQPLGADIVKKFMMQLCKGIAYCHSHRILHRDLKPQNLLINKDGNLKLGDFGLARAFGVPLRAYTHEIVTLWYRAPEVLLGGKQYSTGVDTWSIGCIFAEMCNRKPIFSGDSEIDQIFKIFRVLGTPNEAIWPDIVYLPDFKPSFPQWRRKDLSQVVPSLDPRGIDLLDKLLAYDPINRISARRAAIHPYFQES", "sequence (P20438 whole entry partner)": "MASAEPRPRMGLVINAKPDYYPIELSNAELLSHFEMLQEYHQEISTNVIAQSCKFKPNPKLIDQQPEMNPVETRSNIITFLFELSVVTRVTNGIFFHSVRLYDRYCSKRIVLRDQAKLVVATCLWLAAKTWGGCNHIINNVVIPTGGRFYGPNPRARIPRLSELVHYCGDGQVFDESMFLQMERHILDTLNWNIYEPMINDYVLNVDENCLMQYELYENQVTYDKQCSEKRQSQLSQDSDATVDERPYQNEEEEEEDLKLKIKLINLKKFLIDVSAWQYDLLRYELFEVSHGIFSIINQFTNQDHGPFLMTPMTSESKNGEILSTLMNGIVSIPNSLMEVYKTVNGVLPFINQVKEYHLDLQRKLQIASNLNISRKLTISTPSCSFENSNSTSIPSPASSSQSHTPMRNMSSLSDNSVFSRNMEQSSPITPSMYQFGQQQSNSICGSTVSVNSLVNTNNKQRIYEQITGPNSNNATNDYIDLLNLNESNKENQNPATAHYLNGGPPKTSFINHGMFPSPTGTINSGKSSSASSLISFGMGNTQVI", "conditions": "Tsuchiya et al., 2001; cited from earlier work"}, "[9]": {"tested_on": "Lewis lung adenocarcinoma", "conditions": "WO 01/09113; cited from earlier work"}},
  "data": [
    {"molecule": "C[C@@H]1C[C@H](C)C[C@H](C)[C@@H](O)CC(=O)O[C@H]([C@@H]2CCC[C@H]2C(=O)O)C/C=C/C=C(/C#N)[C@H](O)[C@@H](C)C1", "note": "[Compound 1, Borrelidin]", "values": [
      {"measurement": "inhibition of the formation of spontaneous lung metastases", "setting": "[1]", "value": "effective"},
      {"measurement": "anti-angiogenesis IC50 lower than IC50 for inhibition of protein synthesis", "setting": "[2]; 0.4 ng/mL versus 20 ng/mL", "value": 50, "unit": "fold"},
      {"measurement": "IC50 inhibition of protein synthesis", "setting": "[2]; cultured rat cells", "value": 0.02, "unit": "µg/mL"},
      {"measurement": "IC50 inhibition of capillary tube formation", "setting": "[3]", "value": 0.0004, "unit": "µg/mL"},
      {"measurement": "IC50", "setting": "[3]; read-out: IC50 inhibition of capillary tube formation", "value": 800, "unit": "pM"},
      {"measurement": "Mean % T/C at 1 μM", "setting": "[4]; 1 μM, mean growth across 12 cell-line panel, treated/control x 100, 4 days exposure", "value": 7, "unit": "% T/C"},
      {"measurement": "Mean % T/C at 10 μM", "setting": "[4]; 10 μM, mean growth across 12 cell-line panel, treated/control x 100, 4 days exposure", "value": 6, "unit": "% T/C"},
      {"measurement": "inhibition at 1 µM", "setting": "[4]; Homo sapiens, 1 uM, 100 minus mean %T/C at 1 uM of Table III, read-out: Mean percentage Inhibition of cancer cell lines at 1 uM", "value": 93, "unit": "%"},
      {"measurement": "increment of vascular volume induced by WiDr cells", "setting": "[5]", "value": "significantly reduce"},
      {"measurement": "Mean percentage inhibition of CAM vasculature at 25 ng/CAM", "setting": "[6]; 25 ng/CAM", "value": 62, "unit": "%"},
      {"measurement": "Ratio of inhibition of CAM vasculature at 25 ng/CAM to in vitro cancer cell inhibition at 1 uM", "setting": "[6]; 25 ng/CAM versus 1 uM in cancer cell panel", "value": 0.6},
      {"measurement": "Mean blood vessel density score", "setting": "[6]; angiogenesis score up to 32 (highest density), 0 = no angiogenesis, mean of ten experiments", "value": 6.4},
      {"measurement": "IC50 anti-proliferative activity towards HUVEC", "setting": "[7]; cell growth assay, Wakabayashi et al., 1997", "value": 0.006, "unit": "µg/mL"},
      {"measurement": "HUVEC anti-proliferative IC50 weaker than anti-angiogenesis activity", "setting": "[7]; measured in the same medium", "value": 15, "unit": "fold"},
      {"measurement": "IC50 Cdc28/Cln2", "setting": "[8]", "value": 12, "unit": "µg/mL"},
      {"measurement": "propagation of metastatic nodules after removal of the primary tumour", "setting": "[9]", "value": "weakly inhibited"}
    ]}
  ]
}
